Results taken from PMC9516332 (Frontiers in Oncology, 2022).
Read-outs that look alike come from different tables or passages of the source.

Assays:
[1] = test system: 134 cancer cell lines; assay: Cell viability assay (ATPlite, 72 hours), IC50 on cancer cell line panel
[2] = test system: AP-1060 (ETV6-NTRK3); assay: Cell viability assay; settings: read-out: IC50 in cell proliferation assay

COc1cc(N2CCC(N3CCN(C)CC3)CC2)ccc1Nc1ncc(Cl)c(Nc2ccccc2P(C)(C)=O)n1 [brigatinib]
IC50 ([1]; HEC-6, read-out: IC50 in cell proliferation assay): 5210 nM | IC50 ([1]; Homo sapiens, 769-P, read-out: IC50 in cell proliferation assay): 1910 nM | IC50 ([1]; Homo sapiens, 786-0, read-out: IC50 in cell proliferation assay): 2070 nM | IC50 ([1]; Homo sapiens, A 172, read-out: IC50 in cell proliferation assay): 888 nM | IC50 ([1]; Homo sapiens, A204, read-out: IC50 in cell proliferation assay): 1270 nM | IC50 ([1]; Homo sapiens, A498, read-out: IC50 in cell proliferation assay): 1860 nM | IC50 ([1]; Homo sapiens, A549, read-out: IC50 in cell proliferation assay): 893 nM | IC50 ([1]; Homo sapiens, A704, read-out: IC50 in cell proliferation assay): 3590 nM | IC50 ([1]; Homo sapiens, A-375, read-out: IC50 in cell proliferation assay): 719 nM | IC50 ([1]; Homo sapiens, A-427, read-out: IC50 in cell proliferation assay): 448 nM | IC50 ([1]; Homo sapiens, ACHN, read-out: IC50 in cell proliferation assay): 894 nM | IC50 ([1]; Homo sapiens, AN3-CA, read-out: IC50 in cell proliferation assay): 1860 nM | IC50 ([1]; Homo sapiens, ASPC1, read-out: IC50 in cell proliferation assay): 809 nM | IC50 ([1]; Homo sapiens, AU565, read-out: IC50 in cell proliferation assay): 2580 nM | IC50 ([1]; Homo sapiens, BT-20, read-out: IC50 in cell proliferation assay): 4210 nM | IC50 ([1]; Homo sapiens, BT-474, read-out: IC50 in cell proliferation assay): 7880 nM | IC50 ([1]; Homo sapiens, BT-549, read-out: IC50 in cell proliferation assay): 3010 nM | IC50 ([1]; Homo sapiens, BXPC-3, read-out: IC50 in cell proliferation assay): 619 nM | IC50 ([1]; Homo sapiens, C-33-A, read-out: IC50 in cell proliferation assay): 527 nM | IC50 ([1]; Homo sapiens, CAL-27, read-out: IC50 in cell proliferation assay): 673 nM | IC50 ([1]; Homo sapiens, CCF-STTG1, read-out: IC50 in cell proliferation assay): 3440 nM | IC50 ([1]; Homo sapiens, CCRF-CEM, read-out: IC50 in cell proliferation assay): 3600 nM | IC50 ([1]; Homo sapiens, COLO 205, read-out: IC50 in cell proliferation assay): 998 nM | IC50 ([1]; Homo sapiens, COLO-829, read-out: IC50 in cell proliferation assay): 2560 nM | IC50 ([1]; Homo sapiens, DLD-1, read-out: IC50 in cell proliferation assay): 4720 nM | IC50 ([1]; Homo sapiens, DU-145, read-out: IC50 in cell proliferation assay): 667 nM | IC50 ([1]; Homo sapiens, DU-4475, read-out: IC50 in cell proliferation assay): 1790 nM | IC50 ([1]; Homo sapiens, Daoy, read-out: IC50 in cell proliferation assay): 3070 nM | IC50 ([1]; Homo sapiens, DoTc2-4510, read-out: IC50 in cell proliferation assay): 270 nM | IC50 ([1]; Homo sapiens, EOL1, read-out: IC50 in cell proliferation assay): 50 nM | IC50 ([1]; Homo sapiens, FaDu, read-out: IC50 in cell proliferation assay): 971 nM | IC50 ([1]; Homo sapiens, G-361, read-out: IC50 in cell proliferation assay): 9280 nM | IC50 ([1]; Homo sapiens, HCC827, read-out: IC50 in cell proliferation assay): 129 nM | IC50 ([1]; Homo sapiens, HCC4006, read-out: IC50 in cell proliferation assay): 152 nM | IC50 ([1]; Homo sapiens, HCT-15, read-out: IC50 in cell proliferation assay): 3770 nM | IC50 ([1]; Homo sapiens, HCT-116, read-out: IC50 in cell proliferation assay): 1690 nM | IC50 ([1]; Homo sapiens, HEC-1, read-out: IC50 in cell proliferation assay): 1810 nM | IC50 ([1]; Homo sapiens, HEC-1B, read-out: IC50 in cell proliferation assay): 367 nM | IC50 ([1]; Homo sapiens, HL-60, read-out: IC50 in cell proliferation assay): 1110 nM | IC50 ([1]; Homo sapiens, HT, read-out: IC50 in cell proliferation assay): 4540 nM | IC50 ([1]; Homo sapiens, HT-1080, read-out: IC50 in cell proliferation assay): 1660 nM | IC50 ([1]; Homo sapiens, Hs746T, read-out: IC50 in cell proliferation assay): 2140 nM | IC50 ([1]; Homo sapiens, Hs-578T, read-out: IC50 in cell proliferation assay): 1390 nM | IC50 ([1]; Homo sapiens, HuTu80, read-out: IC50 in cell proliferation assay): 451 nM | IC50 ([1]; Homo sapiens, J82, read-out: IC50 in cell proliferation assay): 1880 nM | IC50 ([1]; Homo sapiens, Jurkat E6.1, read-out: IC50 in cell proliferation assay): 4380 nM | IC50 ([1]; Homo sapiens, K562, read-out: IC50 in cell proliferation assay): 2740 nM | IC50 ([1]; Homo sapiens, KATO III, read-out: IC50 in cell proliferation assay): 211 nM | IC50 ([1]; Homo sapiens, KG-1, read-out: IC50 in cell proliferation assay): 243 nM | IC50 ([1]; Homo sapiens, KLE, read-out: IC50 in cell proliferation assay): 553 nM | IC50 ([1]; Homo sapiens, KMS-11, read-out: IC50 in cell proliferation assay): 430 nM | IC50 ([1]; Homo sapiens, KU812, read-out: IC50 in cell proliferation assay): 1390 nM | IC50 ([1]; Homo sapiens, Kasumi 1, read-out: IC50 in cell proliferation assay): 207 nM | IC50 ([1]; Homo sapiens, LC-2-ad, read-out: IC50 in cell proliferation assay): 334 nM | IC50 ([1]; Homo sapiens, LNCaP-Clone-FGC, read-out: IC50 in cell proliferation assay): 689 nM | IC50 ([1]; Homo sapiens, LS174T, read-out: IC50 in cell proliferation assay): 1330 nM | IC50 ([1]; Homo sapiens, LS-411N, read-out: IC50 in cell proliferation assay): 1760 nM | IC50 ([1]; Homo sapiens, LoVo, read-out: IC50 in cell proliferation assay): 2020 nM | IC50 ([1]; Homo sapiens, MCF7, read-out: IC50 in cell proliferation assay): 601 nM | IC50 ([1]; Homo sapiens, MDA-MB-231, read-out: IC50 in cell proliferation assay): 2000 nM | IC50 ([1]; Homo sapiens, MDA-MB-453, read-out: IC50 in cell proliferation assay): 6650 nM | IC50 ([1]; Homo sapiens, MDA-MB-468, read-out: IC50 in cell proliferation assay): 2010 nM | IC50 ([1]; Homo sapiens, MG-63, read-out: IC50 in cell proliferation assay): 1050 nM | IC50 ([1]; Homo sapiens, MIA PaCa-2, read-out: IC50 in cell proliferation assay): 1190 nM | IC50 ([1]; Homo sapiens, MKN-45, read-out: IC50 in cell proliferation assay): 2640 nM | IC50 ([1]; Homo sapiens, MOLM-13, read-out: IC50 in cell proliferation assay): 58 nM | IC50 ([1]; Homo sapiens, MOLT-4, read-out: IC50 in cell proliferation assay): 1950 nM | IC50 ([1]; Homo sapiens, MV4-11, read-out: IC50 in cell proliferation assay): 33 nM | IC50 ([1]; Homo sapiens, MeWo, read-out: IC50 in cell proliferation assay): > 10000 nM | IC50 ([1]; Homo sapiens, NCCIT, read-out: IC50 in cell proliferation assay): 2680 nM | IC50 ([1]; Homo sapiens, NCI-H82, read-out: IC50 in cell proliferation assay): 1980 nM | IC50 ([1]; Homo sapiens, NCI-H460, read-out: IC50 in cell proliferation assay): 1380 nM | IC50 ([1]; Homo sapiens, NCI-H661, read-out: IC50 in cell proliferation assay): 402 nM | IC50 ([1]; Homo sapiens, NCI-H716, read-out: IC50 in cell proliferation assay): 201 nM | IC50 ([1]; Homo sapiens, NCI-H1650, read-out: IC50 in cell proliferation assay): 673 nM | IC50 ([1]; Homo sapiens, NCI-H1975, read-out: IC50 in cell proliferation assay): 449 nM | IC50 ([1]; Homo sapiens, NCI-H2228, read-out: IC50 in cell proliferation assay): 8 nM | IC50 ([1]; Homo sapiens, OVCAR-3, read-out: IC50 in cell proliferation assay): 939 nM | IC50 ([1]; Homo sapiens, PFSK-1, read-out: IC50 in cell proliferation assay): 592 nM | IC50 ([1]; Homo sapiens, RL95-2, read-out: IC50 in cell proliferation assay): 652 nM | IC50 ([1]; Homo sapiens, RPMI-7951, read-out: IC50 in cell proliferation assay): 1280 nM | IC50 ([1]; Homo sapiens, RS4-11, read-out: IC50 in cell proliferation assay): 473 nM | IC50 ([1]; Homo sapiens, Rec1, read-out: IC50 in cell proliferation assay): 1320 nM | IC50 ([1]; Homo sapiens, SHP77, read-out: IC50 in cell proliferation assay): 5190 nM | IC50 ([1]; Homo sapiens, SK-BR-3, read-out: IC50 in cell proliferation assay): 1360 nM | IC50 ([1]; Homo sapiens, SK-N-AS, read-out: IC50 in cell proliferation assay): 618 nM | IC50 ([1]; Homo sapiens, SK-N-FI, read-out: IC50 in cell proliferation assay): 1090 nM | IC50 ([1]; Homo sapiens, SK-N-MC, read-out: IC50 in cell proliferation assay): 401 nM | IC50 ([1]; Homo sapiens, SK-N-SH, read-out: IC50 in cell proliferation assay): 367 nM | IC50 ([1]; Homo sapiens, SNU-5, read-out: IC50 in cell proliferation assay): 2150 nM | IC50 ([1]; Homo sapiens, SNU-16, read-out: IC50 in cell proliferation assay): 376 nM | IC50 ([1]; Homo sapiens, SNU-C2B, read-out: IC50 in cell proliferation assay): 741 nM | IC50 ([1]; Homo sapiens, SU-DHL-1, read-out: IC50 in cell proliferation assay): 35 nM | IC50 ([1]; Homo sapiens, SU-DHL-6, read-out: IC50 in cell proliferation assay): 1340 nM | IC50 ([1]; Homo sapiens, SUP-T1, read-out: IC50 in cell proliferation assay): 1480 nM | IC50 ([1]; Homo sapiens, SW48, read-out: IC50 in cell proliferation assay): 713 nM | IC50 ([1]; Homo sapiens, SW480, read-out: IC50 in cell proliferation assay): 1090 nM | IC50 ([1]; Homo sapiens, SW626, read-out: IC50 in cell proliferation assay): 1300 nM | IC50 ([1]; Homo sapiens, SW780, read-out: IC50 in cell proliferation assay): 317 nM | IC50 ([1]; Homo sapiens, SW837, read-out: IC50 in cell proliferation assay): 663 nM | IC50 ([1]; Homo sapiens, SW872, read-out: IC50 in cell proliferation assay): 780 nM | IC50 ([1]; Homo sapiens, SW900, read-out: IC50 in cell proliferation assay): 537 nM | IC50 ([1]; Homo sapiens, SW948, read-out: IC50 in cell proliferation assay): 1440 nM | IC50 ([1]; Homo sapiens, SW982, read-out: IC50 in cell proliferation assay): 490 nM | IC50 ([1]; Homo sapiens, SW-620, read-out: IC50 in cell proliferation assay): 980 nM | IC50 ([1]; Homo sapiens, T98G, read-out: IC50 in cell proliferation assay): 1340 nM | IC50 ([1]; Homo sapiens, TCC-SUP, read-out: IC50 in cell proliferation assay): 1420 nM | IC50 ([1]; Homo sapiens, THP-1, read-out: IC50 in cell proliferation assay): 6380 nM | IC50 ([1]; Homo sapiens, U2OS, read-out: IC50 in cell proliferation assay): 1240 nM | IC50 ([1]; Homo sapiens, U-87 MG, read-out: IC50 in cell proliferation assay): 8530 nM | IC50 ([1]; Homo sapiens, U-118-MG, read-out: IC50 in cell proliferation assay): 1880 nM | IC50 ([1]; Homo sapiens, UMUC3, read-out: IC50 in cell proliferation assay): 1320 nM | IC50 ([1]; Hs766T, read-out: IC50 in cell proliferation assay): 2540 nM | IC50 ([1]; L-82, read-out: IC50 in cell proliferation assay): 6.37 nM | IC50 ([1]; Rh30, read-out: IC50 in cell proliferation assay): 464 nM | IC50 [2]: 2400 nM
